This note sets out measurements from patent US8604217B2, “Compound, a process for its preparation, a pharmaceutical composition, use of a compound, a method for modulating or regulating serine/threonine kinases and a serine/threonine kinases modulating agent” (Selvita S.A., priority 2009, dated 2013).

One experiment concerns the target PIM-1 (Homo sapiens (Human), UniProt P11309). Nature of the experiment: Luminometric kinase assay for PIM1 kinase (Kinase-Glo). Format: biochemical. To be noted: 1 μM ATP, 25 min at RT. The essentials: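 Kinase and substrate reacted in 8 mM MOPS/NaOH pH7.0, 0.2 mM EDTA, 2 mM MgCl2 with 1 μM ATP for 25 min at RT, compounds serially diluted from 1 μM. Remaining ATP read by Kinase-Glo luminescence; IC50 from variable-slope sigmoidal fit.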

Experiment [1] has as its system human chronic myelocytic leukemia K562 cells. Description: Growth inhibition test (MTS) on K562 cells. The format is cell-based. The conditions noted are these: Homo sapiens, K562, 72 hours, read-out: K562 ED50. As for the experimental part:
(§1) Ten thousand cells of human chronic myelocytic leukemia K562 were inoculated into each well of a 96-well microplate (manufactured by Corning Corp.) using Iscove's MDM medium (culture medium) containing 10% fetal calf serum (FCS). Next day, a dimethyl sulfoxide (DMSO) solution of each test compound prepared in a concentration of 10 mmol/L was further diluted with culture medium to the desired concentrations (0.1, 0.5, 1, 2.5, 5 and 10 micromol/L), and the diluted solution was added to each well. The individual wells were further cultured in 5% carbon dioxide at 37° C. for 72 hours. After completion of the culture, 10 μl MTS (3-(4,5-Dimethyl-2-thiazolyl)-5-(carboxymethoxyphenyl)-2-(4-sulfophenyl)-2H-tetrazolium, inner salt assay (CellTiter96® AQueous One Solution Cell Proliferation Assay, Promega) was added to each well, and culturing was performed in 5% carbon dioxide at 37° C. for 2 hours. Using a microplate spectrophotometer (Synergy 2 multi-mode microplate reader (BioTek)), the absorbance of each well was measured at 490 nm. The value for cells not incorporated with a test compound was designated as 100%. By comparing these values with the absorbance difference obtained at the well in which each test compound was added, the cell viability (% viability) after treatment with the test compound was calculated.

In experiment [2] the test system is human colorectal adenocarcinoma SW480 cells. Nature of the experiment: Growth inhibition test (MTS) on SW480 cells. The format is cell-based. The conditions noted are these: Homo sapiens, SW480, 72 hours, read-out: SW480 ED50. As for the experimental part:
as §1, with “Two” for “Ten”, “colorectal adenocarcinoma SW480” for “chronic myelocytic leukemia K562”, “Corp.), and” for “Corp.)”, “DMEM/Ham's F121:1” for “Iscove's MDM”, “5%” for “10%”

The subject of experiment [3] is human prostate adenocarcinoma PC3 cells. Description: Growth inhibition test (MTS) on PC3 cells. To be noted: Homo sapiens, PC-3, 72 hours, read-out: PC-3 ED50. The format is cell-based.
The subject of experiment [4] is human hepatoma HepG2 cells. Description: Growth inhibition test (MTS) on HepG2 cells. Format: cell-based. To be noted: 72 hours, read-out: HepG2 ED50. In outline:
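HepG2 cells in DMEM with 10% FCS were exposed for 72 h at 37 °C, 5% CO2, to 0.1, 0.5, 1, 2.5, 5 and 10 micromol/L compound. MTS was then added for 2 h and absorbance read at 490 nm. % viability was calculated relative to untreated cells set at 100%.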

Chain of PIM-1 (P11309 whole entry): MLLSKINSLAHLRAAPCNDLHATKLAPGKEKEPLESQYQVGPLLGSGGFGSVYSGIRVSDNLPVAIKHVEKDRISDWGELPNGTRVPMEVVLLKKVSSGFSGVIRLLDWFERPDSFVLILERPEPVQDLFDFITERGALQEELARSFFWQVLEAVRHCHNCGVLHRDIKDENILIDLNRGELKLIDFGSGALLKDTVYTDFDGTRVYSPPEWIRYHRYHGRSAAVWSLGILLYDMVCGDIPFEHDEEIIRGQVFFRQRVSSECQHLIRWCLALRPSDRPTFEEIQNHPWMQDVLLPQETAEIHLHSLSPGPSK

As for `NCCCNc1nc2c(Br)c(Br)c(Br)c(Br)c2[nH]1` [Compound 11, N-(3-aminopropyl)-4,5,6,7-tetrabromo-1H-benzo[d]imidazol-2-amine], the IC50 was found to be 5.89 nM at PIM-1; 7470 nM in experiment [1]; 2470 nM in experiment [2]; 4900 nM in experiment [3]; 2840 nM in experiment [4].
With `Brc1c(Br)c(Br)c2[nH]c(N3CCNCC3)nc2c1Br` [Compound 20, 4,5,6,7-tetrabromo-2-(piperazin-1-yl)-1H-benzo[d]imidazole], the IC50 worked out at 16.9 nM on PIM-1; 6460 nM in experiment [1]; 3450 nM in experiment [2]; 5140 nM in experiment [3]; 2860 nM in experiment [4].
On the same counts, the results for `NC1CCC(Nc2nc3c(Br)c(Br)c(Br)c(Br)c3[nH]2)CC1` (centres unmarked) [Compound 87, N1-(4,5,6,7-tetrabromo-1H-benzo[d]imidazol-2-yl)cyclohexane-1,4-diamine] are 15.1 nM, 5590 nM, 2030 nM, 5650 nM and 3800 nM.
On the same counts, the results for `NC1CCCC(Nc2nc3c(Br)c(Br)c(Br)c(Br)c3[nH]2)C1` (centres unmarked) [Compound 336, N1-(4,5,6,7-tetrabromo-1H-benzo[d]imidazol-2-yl)cyclohexane-1,3-diamine] are 18.8 nM, 6880 nM, 4150 nM, 8400 nM and 4870 nM.
The corresponding values for `Brc1c(Br)c(Br)c2[nH]c(N[C@H]3COC[C@@H]3N3CCCC3)nc2c1Br` [Compound 337, 4,5,6,7-tetrabromo-N-((3R,4R)-tetrahydro-4-(pyrrolidin-1-yl)furan-3-yl)-1H-benzo[d]imidazol-2-amine] are 25.6 nM, 3020 nM, 1610 nM, 3830 nM and 2400 nM.
`Brc1c(Br)c(Br)c2[nH]c(N[C@H]3COC[C@@H]3N3CCCCC3)nc2c1Br` [Compound 338, 4,5,6,7-tetrabromo-N-((3R,4R)-tetrahydro-4-(piperidin-1-yl)furan-3-yl)-1H-benzo[d]imidazol-2-amine]: the IC50 turned out to be 21.7 nM on PIM-1; 5030 nM in experiment [1]; 1950 nM in experiment [2]; 4760 nM in experiment [3]; 2760 nM in experiment [4].
On the same counts, the results for `NCc1ccccc1CNc1nc2c(Br)c(Br)c(Br)c(Br)c2[nH]1` [Compound 349, N-(2-(aminomethyl)benzyl)-4,5,6,7-tetrabromo-1H-benzo[d]imidazol-2-amine] are 69.8 nM, 6510 nM, 1610 nM, 4700 nM and 2510 nM.
The corresponding values for `CN1CCCC(Nc2nc3c(Br)c(Br)c(Br)c(Br)c3[nH]2)CC1` (centres unmarked) [Compound 358, 4,5,6,7-tetrabromo-N-(1-methylazepan-4-yl)-1H-benzo[d]imidazol-2-amine] are 5.82 nM, 6640 nM, 2420 nM, 6200 nM and 2650 nM.
The corresponding values for `CC(C)n1c(N2CCNCC2)nc2c(Br)c(Br)c(Br)c(Br)c21` [Compound 359, 4,5,6,7-tetrabromo-1-isopropyl-2-(piperazin-1-yl)-1H-benzo[d]imidazole] are 6.84 nM, 3050 nM, 1600 nM, 2950 nM and 1850 nM.
With `C[C@@H]1CN(c2nc3c(Br)c(Br)c(Br)c(Br)c3[nH]2)[C@@H](C)CN1` [Compound 364, 4,5,6,7-tetrabromo-2-((2S,5R)-2,5-dimethylpiperazin-1-yl)-1H-benzo[d]imidazole], the IC50 stood at 10.2 nM at PIM-1; 5210 nM in experiment [1]; 1270 nM in experiment [2]; 4580 nM in experiment [3]; 2330 nM in experiment [4].
`Brc1c(Br)c(Br)c2[nH]c(NC3CCCNCC3)nc2c1Br` (centres unmarked) [Compound 366, N-(azepan-4-yl)-4,5,6,7-tetrabromo-1H-benzo[d]imidazol-2-amine]: the IC50 on PIM-1 was determined as 3.5 nM; in experiment [1], 5040 nM; in experiment [2] it was 2840 nM; in experiment [3], 5600 nM; in experiment [4], 1700 nM.
The corresponding values for `CC(C)NC1CCCCC1Nc1nc2c(Br)c(Br)c(Br)c(Br)c2[nH]1` (centres unmarked) [Compound 369, N1-(4,5,6,7-tetrabromo-1H-benzo[d]imidazol-2-yl)-N2-isopropylcyclohexane-1,2-diamine] are 41.1 nM, 3530 nM, 550 nM, 2450 nM and 1400 nM.
On the same counts, the results for `Brc1c(Br)c(Br)c2c(nc(N3CCNCC3)n2Cc2ccccc2)c1Br` [Compound 374, 1-benzyl-4,5,6,7-tetrabromo-2-(piperazin-1-yl)-1H-benzo[d]imidazole] are 107 nM, 2940 nM, 1440 nM, 2500 nM and 1330 nM.
Take `CN(C)C1CCCN(c2nc3c(Br)c(Br)c(Br)c(Br)c3[nH]2)C1` (centres unmarked) [Compound 378, 1-(4,5,6,7-tetrabromo-1H-benzo[d]imidazol-2-yl)-N,N-dimethylpiperidin-3-amine]: the IC50 on PIM-1 was 39.1 nM; in experiment [2] it was 5000 nM; in experiment [3], 6660 nM; in experiment [4] it was 4200 nM.
As for `Brc1c(Br)c(Br)c2[nH]c(N3CCC(C4CCNCC4)CC3)nc2c1Br` [Compound 386, 4,5,6,7-tetrabromo-2-(4-(piperidin-4-yl)piperidin-1-yl)-1H-benzo[d]imidazole], the IC50 at PIM-1 worked out at 58 nM; in experiment [1] it was 2860 nM; in experiment [2] it was 1770 nM; in experiment [3], 2770 nM.
Turning to `CCCCCNC1CCCCC1Nc1nc2c(Br)c(Br)c(Br)c(Br)c2[nH]1` (centres unmarked) [Compound 413, N1-(4,5,6,7-tetrabromo-1H-benzo[d]imidazol-2-yl)-N2-pentylcyclohexane-1,2-diamine], the IC50 on PIM-1 was 119 nM; in experiment [1] it was 2730 nM; in experiment [2] it was 580 nM; in experiment [3] it was 1450 nM; in experiment [4] it was 1360 nM.
The corresponding values for `CCn1c(N2CCNCC2)nc2c(Br)c(Br)c(Br)c(Br)c21` [Compound 416, 4,5,6,7-tetrabromo-1-ethyl-2-(piperazin-1-yl)-1H-benzo[d]imidazole] are 6.55 nM, 3650 nM, 1250 nM, 2100 nM and 1310 nM.
Turning to `CCCn1c(N2CCNCC2)nc2c(Br)c(Br)c(Br)c(Br)c21` [Compound 417, 4,5,6,7-tetrabromo-2-(piperazin-1-yl)-1-propyl-1H-benzo[d]imidazole], the IC50 on PIM-1 came out at 9.36 nM; in experiment [1] it was 4960 nM; in experiment [2], 2560 nM; in experiment [3], 2570 nM; in experiment [4], 1850 nM.
Take `Brc1c(Br)c(Br)c2[nH]c(NC3CCNCC3)nc2c1Br` [Compound 435, 4,5,6,7-tetrabromo-N-(piperidin-4-yl)-1H-benzo[d]imidazol-2-amine]: the IC50 worked out at 6.68 nM on PIM-1, 5640 nM in experiment [1], 1270 nM in experiment [2] and 5790 nM in experiment [3].
